Experimental findings from patent publication US8937063B2 (Trustees of Tufts College, priority 2010, dated 2015) are described below.

In one series the test system is adiponectin mRNA. Nature of the series: qPCR of adipose mRNA in HF/HS hamsters. The class given is in vivo, hamster. The note with it: ARI-001 2240 mg/kg oral 18 days; relative to mean of vehicle. The text has this:
Hamster livers and adipose were preared in manners similar to that described for ARI-001 concentration determination. Briefly, to prepare for analysis, a sample of liver was excised from the frozen mass, weighed, and homogenized with a tissue grinder followed by sonication in buffer. The solid materials were then removed by centrifugation. The resulting lysate was used in qPCR analysis to quantify the specific mRNA measured (vide infra) using primers designed for the specific sequences of interest. All mRNA quantities were normalized to vehicle-treated animal, and mRNA levels were expressed as a fold increase or decrease relative to vehicle-treated. […] During grinding, liquid nitrogen was added to ensure the sample of adipose remained solid. The ground sample was transferred to a tared tube to weigh total sample. This ground sample was treated with buffer and prepared for qPCR to quantify specific mRNA quantities.
In general terms: Quantitative PCR measures a nucleic acid by following its amplification.

Series [1] is described as follows: ARI-001 plasma, liver and adipose concentrations correlated with lipid parameters. The class given is in vivo, hamster. Particulars: 18-day study; p<0.01 for each pair. The method, then: Plasma from the 19 hamsters dosed with ARI-001 in the above described 18-day study was analyzed for concentrations of ARI-001. Concentrations were determined for these samples, which were collected 24 hours after the final dose was administered. Briefly, plasma drug concentrations for the non-GLP pharmacokinetic experiments were determined by LC-MS using an Applied Biosystems 4000Qtrap spectrometer with electrospray ionization. Samples were prepared for analysis by precipitation of plasma proteins with cold methanol. HPLC of the samples was done with an Agilent Eclipse C18 column and a methanol/water gradient containing 0.1% formic acid and 5 mM ammonium acetate. ARI-001 was detected using multiple reaction monitoring (MRM) in the positive ion mode. For quantitation, a standard curve was measured by addition of known amounts of ARI-001 to plasma from untreated animals and preparing in a manner identical to the samples from treated animals. All plasma samples were spiked with 10 ng/mL of isotope-enriched ARI-001 which served as an internal standard for the LC-MS measurements. […] Pearson r values were determined using all data points, as was the two-tailed P-value for the data set. […]
FIG. 8 graphs the correlation between concentrations of ARI-001 in plasma versus liver (left), and in plasma versus adipose (right). […] Pearson r was determined using all data points illustrated. […]

A short description of series [2]: Single-dose pharmacokinetic study PO/IP in wild type mice. The class given is in vivo, C57BL/6 mice. The note with it: for AUC / Cmax / Tmax / half-life: C57BL/6, mouse plasma. As to the method: Plasma from the 19 hamsters dosed with ARI-001 in the above described 18-day study was analyzed for concentrations of ARI-001. Concentrations were determined for these samples, which were collected 24 hours after the final dose was administered. Briefly, plasma drug concentrations for the non-GLP pharmacokinetic experiments were determined by LC-MS using an Applied Biosystems 4000Qtrap spectrometer with electrospray ionization. Samples were prepared for analysis by precipitation of plasma proteins with cold methanol. HPLC of the samples was done with an Agilent Eclipse C18 column and a methanol/water gradient containing 0.1% formic acid and 5 mM ammonium acetate. ARI-001 was detected using multiple reaction monitoring (MRM) in the positive ion mode. For quantitation, a standard curve was measured by addition of known amounts of ARI-001 to plasma from untreated animals and preparing in a manner identical to the samples from treated animals. All plasma samples were spiked with 10 ng/mL of isotope-enriched ARI-001 which served as an internal standard for the LC-MS measurements. All compound concentrations are reported in μM. For correlation analysis, plasma concentrations of ARI-001 in a given animal were paired with that same animal's lipid parameter. […] These correlations are graphed in FIG. 6 and FIG. 7. Pearson r values were determined using all data points, as was the two-tailed P-value for the data set.
Wild type C57BL/6 mice were dosed with a single administration of ARI-001 in solution either via oral gavage (PO) or via intraperitoneal injection (IP). Blood samples were then collected at various time points over a 24-hour period; plasma was then analyzed for concentrations of ARI-001 as described earlier. ARI-001 was administered at either a dose of 2240 mg/kg as a single bolus via oral gavage, or a dose of 448 mg/kg as a single bolus via intraperitoneal injection.

For a further series, the target named is T1, GPR109A (Homo sapiens, UniProt Q8TDS4).
T1 construct: β-galactosidase enzyme fragment (ProLink-type complementation tag); expressed in transfected cells
Put plainly: PathHunter eXpress β-arrestin recruitment assay. The format is cell-based. Particulars: concentrations up to 10 mM, 90 minutes. From the text: Walters R W et al. (2009) J Clin Invest 119:1312-21. […] G protein-coupled receptor (GPCR) activity was detected by measuring the interaction of β-arrestin with the activated GPCR using […] enzyme fragment complementation.
On the technique in general: Recruitment of arrestin is a read-out of receptor activation apart from second messengers.

For the next series, the system named is mice. Put plainly: Doppler capillary blood flow (flush proxy) in mice. The note with it: Doppler capillary blood flow measurements. The format is in vivo.
Series [3] concerns plasma lipids in animal models. Nature of the series: Summary of lipid efficacy studies in animal models. The class given is in vivo. The text has this:
A number of pharmacokinetic, safety, and efficacy studies for ARI-001 have been completed in a variety of animals, including mice, rats, Golden Syrian hamsters, dogs, and monkeys. Overall, results from these studies have established the following.

Series [4] can be described thus: Human clinical trial, single oral doses: serum concentration. The format is in vivo. Particulars: serum, ARI-001 2000 mg single oral dose, preliminary, read-out: Cmax, serum. The method, then: Five periods of single dose escalation, with 8 subjects per cohort (6 drug: 2 placebo) involve a total 40 subjects. Appropriately blinded matching placebos are provided. Cohort 1 receives 500 mg of ARI-001 formulated as a single oral tablet, plus eleven placebo tablets; Cohort 2, […] of ARI-001, plus ten placebo tablets; Cohort 3, […] of ARI-001, plus eight placebo tablets; Cohort 4, […] of ARI-001, plus four placebo tablets; Corhort 5, […] of ARI-001. Placebo-only subjects take twelve placebo tablets. Each tablet is a compressed, film-coated tablet suitable for oral administration.
Pharmacokinetic samples are collected at 0-45 min pre-dose and at 0.5, 1, 1.5, 2, 4, 6, 8, 12, 24, 30 and 168 hours after dosing. […]
[…] […] Analysis of all samples is performed at a central laboratory.

[5] abbreviates: PO, 2240 mg/kg single bolus oral gavage.

T1 sequence (Q8TDS4 whole entry, the tested form may be a part): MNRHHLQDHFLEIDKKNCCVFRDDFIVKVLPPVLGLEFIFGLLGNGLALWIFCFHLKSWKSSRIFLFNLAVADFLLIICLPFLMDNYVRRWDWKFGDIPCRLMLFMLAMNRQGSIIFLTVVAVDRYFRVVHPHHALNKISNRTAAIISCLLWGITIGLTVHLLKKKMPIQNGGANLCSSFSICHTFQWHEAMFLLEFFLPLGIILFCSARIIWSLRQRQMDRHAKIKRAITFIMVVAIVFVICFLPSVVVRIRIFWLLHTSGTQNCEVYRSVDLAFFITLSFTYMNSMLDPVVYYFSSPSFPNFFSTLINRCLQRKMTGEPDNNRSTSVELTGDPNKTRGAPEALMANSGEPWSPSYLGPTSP

The AUC is the area under the concentration-time curve, a measure of exposure. A lower AUC goes with low exposure. For orientation: Cmax means the peak of the concentration-time curve. The term Tmax denotes the time at which the peak concentration occurs. Usually half-life stands for how long it takes for the measured level to halve. As to `O=C(O)c1ccc(CCN2CCOCC2)nc1` [ARI-001], the “Adipose Adiponectin mRNA per mg tissue” value with adiponectin mRNA was found to be 2.00 ± 0.23 fold-change. Moreover, the “correlations of plasma versus liver and plasma versus adipose concentrations” value in series [1] is given as “highly statistically significant”. In series [2] (IP, 448 mg/kg single bolus), the AUC came out at 439 µM·h, the peak level (Cmax) was 450 µM, the time of peak concentration (Tmax) is 15 min and the half-life was 30 min. In addition, in series [2] (setting [5]), the AUC was determined as 1100 µM·h, the peak concentration (Cmax) came out at 289 µM, the Tmax worked out at 30 min and the half-life is 90 min. In addition, the “remaining plasma concentration at the 24 hour timepoint” value in series [2] (single dose PO 2240 mg/kg or IP 448 mg/kg) is “undetectable”. The “recruitment of β-arrestin to the membrane of cells expressing GPR109A” value on GPR109A is recorded as “failed to recruit β-arrestin”. Also, in the series with mice, the “capillary vasodilation or hyperemia (a proxy of flush)” value was “no evidence of capillary vasodilation or hyperemia”. Further, the “plasma lipid changes, once daily vs same total dose twice daily” value in series [3] (in vivo) is recorded as “greater than or equal to the lipid altering effects observed with the same total dose of ARI-001 given twice daily”. For the same molecule, the “lipid altering effects of once-daily dose vs niacin” value in series [3] (niacin at nearly 2-fold higher dose once a day) is “more pronounced”. Moreover, the maximum concentration (Cmax) in series [4] was ~7500 ng/mL.
